Measurements as given in patent US9951051B2, “Process for producing alkynylketone derivative” (Shionogi & Co., Ltd., priority 2014, dated 2018).
Where a name gives a salt, the structure may show the parent alone.

Experiment: Solubility test of methanesulfonate of Compound represented by Formula (II″)
Assay type: physicochemical
Conditions: HPLC method A; for concentration in supernatant solution (solubility): 20 to 25 °C, slurry stirred over two hours; for concentration of crystalline form dissolved into the solution: Conditions in Example 2 (DMSO/NMM/THF/MeCN), 0 °C
Procedure: Crystalline form of methanesulfonate of Compound represented by Formula (II″) and crystalline form of free form of Compound represented by Formula (II″) were suspended in tetrahydrofuran or acetonitrile, respectively. The slurries were stirred at 20° C. to 25° C. for over two hours, and then the concentration in each supernatant solution was measured (HPLC method A). The HPLC results of the concentration in each supernatant solution are indicated as Table 12.
Moreover, the concentration of each crystalline form being dissolved into the solution at 0° C. in Step 1 (Step to obtain the crystalline form of methanesulfonate) and Step 2 (Step to obtain the crystalline form of free form) in Example 2 was measured by HPLC method A and compared (Table 12).

## CC#CC(=O)c1ccc2ncnc(Nc3ccc(OCc4cccc(F)c4)c(Cl)c3)c2c1 [MsOH salt of Formula (II″)]
Acetonitrile
  concentration in supernatant solution (solubility): 0.05%
  concentration of crystalline form dissolved into the solution: 3.1%
Listed as methanesulfonate of Compound represented by (II″)
  concentration of crystalline form dissolved into the solution: 3.1%
Tetrahydrofuran
  concentration in supernatant solution (solubility): 0.05%

## CC#CC(=O)c1ccc2ncnc(Nc3ccc(OCc4cccc(F)c4)c(Cl)c3)c2c1 [Free form of Formula (II″), 4-(3-chloro-4-(3-fluorobenzyloxy)phenylamino)-6-(1-oxo-2-butyn-1-yl)quinazoline]
Acetonitrile
  concentration in supernatant solution (solubility): 0.3%
  concentration of crystalline form dissolved into the solution: 15.7%
Listed as free form of Compound represented by (II″)
  concentration of crystalline form dissolved into the solution: 15.7%
Tetrahydrofuran
  concentration in supernatant solution (solubility): 3.6%
